In this assay the test system is 317291-083-R-J1-PDC complex spheroids, viability. Briefly: Anticancer human tumor 317291-083-R-J1-PDC patient-derived soft tissue sarcoma cell line growth inhibition [GQUAD]. Particulars: for viability, T/C: stronger effect = lower value. The text has this:
DNA G-quadruplex Stabilizer Agents in Combinations in Complex Spheroids
A high-throughput screen of multi-cell type tumor spheroids was designed to identify active combinations of DNA G-quadruplex stabilizer agents and targeted small molecules. Complex spheroids include a stromal component modeled by human endothelial cells (HUVEC) and fibroblasts modeled by human mesenchymal stem cells (MSCs). The concentration ranges selected for each drug and investigational agent were based upon clinically achievable concentrations if the clinical Cmax of the agent was known.
Compounds. The drugs and investigational agents: pidnarulex (CX-5461; NSC782164), APTO-253 (NSC789042), BRACO-19 (NSC847499), peposertib (NSC802822), ceralasertib (NSC780249), elimusertib (NSC800525), camonsertib (NSC841442), AZD-1390 (NSC803789), olaparib (NSC753686), talazoparib (NSC767125), ART-558 (NSC835418), sotorasib (NSC818433), MRTX-1133 (NSC836407), SN-38 (NSC673596), topotecan (NSC609699), etoposide (NSC141540), doxorubicin (NSC123127), gemcitabine (NSC613327), 5-fluorouracil (NSC19893), paclitaxel (NSC125973), vemurafenib (NSC761431), panobinostat (NSC761190), R-306465 (JNJ-16241199; NSC773264), adavosertib (NSC754352), TP-3654 (NSC805149), carboplatin (NSC241240), KSQ-4279 (NSC840948), and staurosporine (NSC755774) were obtained from the National Cancer Institute (NCI) Developmental Therapeutics Program Chemical Repository (34). The FDA-approved anticancer drug set is available from the NCI Developmental Therapeutics Program. […] The stock solutions were prepared in dimethyl sulfoxide (DMSO, Sigma-Aldrich, St. Louis, MO, cat. D2650) at 800-fold the tested concentration and stored at -70 degrees C prior to their use. All drugs and investigational agents were tested over a range starting from a high concentration at or near the clinical Cmax and decreasing in half-log increments. If the clinical Cmax for an agent had not been determined, the highest concentration tested was 10 microM.
2.3 Cell Culture. All cells were maintained in an incubator at 37 degrees C and 5% CO2 with 95% humidity. The PDC lines were cultured according to standard operating procedures established by the NCI PDMR. All PDCs were thawed and cultured in Matrigel-coated flasks prepared with a working solution of 1X Ham's F-12 nutrient mix, without supplementation (Invitrogen, cat. 11765054), 100 U/mL penicillin-streptomycin (Invitrogen, cat. 15140122), and 2.5% Matrigel (Corning Inc., cat. 354248) for the first three passages. The 857933-349-R-J2-PDC line was cultured in 6C/Colon 1B media, which includes advanced DMEM/F-12 (Thermo Fisher Scientific, cat. 12634028), 10 mM HEPES (Thermo Fisher Scientific, cat. 15630080), 1X GlutaMAX supplement (Thermo Fisher Scientific, cat. 35050061), 0.1 mg/mL primocin (InvivoGen, cat. ant-pm-2), 10% defined fetal bovine serum, heat inactivated (HyClone Laboratories Inc., cat. SH30070.03HI), 50% L-WRN conditioned media (ATCC, cat. CRL-3276), 1.25 mM N-Acetyl-L-cysteine (Sigma-Aldrich, cat. A9165), 10 mM nicotinamide (Sigma-Aldrich, cat. N0636), 1X B-27 supplement (Thermo Fisher Scientific, cat. 17504044), 1X N-2 supplement (Thermo Fisher Scientific, cat. 17502048), 10 microM Y-27632 dihydrochloride (Tocris Bioscience, cat. 1254), and 50 ng/mL human EGF recombinant protein (Thermo Fisher Scientific, cat. PHG0311). The 485176-168-R4-J1-PDC line was cultured in Panc media, which includes all 6C/Colon 1B media components plus 100 ng/mL human FGF-10 (Thermo Fisher Scientific, cat. 100-26), 500 nM SB-431542 (Selleckchem, cat. S1067), and gastrin (Tocris, cat. 3006).
[…]

The mark [1] stands for this setting: curve of first compound, second compound 0.0316 µM.
The mark [2] stands for this setting: curve of first compound, second compound 0.1 µM.
[3] abbreviates: curve of first compound, second compound 0.316 µM.
The mark [4] stands for this setting: curve of first compound, second compound 1 µM.
[5] abbreviates: curve of first compound, second compound 3.16 µM.
Setting [6] is: curve of first compound, second compound 10 µM.
[7] abbreviates: second compound 0.0316 µM, first compound 0.0316 µM.
Setting [8] is: second compound 0.0316 µM, first compound 0.316 µM.
The mark [9] stands for this setting: second compound 0.1 µM, first compound 0.0316 µM.
[10] abbreviates: second compound 0.1 µM, first compound 0.316 µM.
[11] abbreviates: second compound 0.316 µM, first compound 0.0316 µM.
Setting [12] is: second compound 0.316 µM, first compound 0.316 µM.
Setting [13] is: second compound 1 µM, first compound 0.0316 µM.
The mark [14] stands for this setting: second compound 1 µM, first compound 0.316 µM.
[15] abbreviates: second compound 3.16 µM, first compound 0.0316 µM.
[16] abbreviates: second compound 3.16 µM, first compound 0.316 µM.
Where [17] appears, read: second compound 10 µM, first compound 0.0316 µM.
Where [18] appears, read: second compound 10 µM, first compound 0.316 µM.

Here are results for five molecules from PubChem BioAssay AID2060497 (Molecular Pharmacology Branch, DTP, NCI, 2025).

Molecules are shown by their SMILES. Where “and” joins values, the source holds several entries; their conditions need not be identical. Identical values can stand only once. Where only a bound is given, the exact number is not on record here.
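Further: spheroids exposed to compounds for one week before readout.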
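Wherever viability, T/C is given: percent viability relative to DMSO vehicle wells taken as 100%.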

On to `C=CCn1c(=O)c2cnc(Nc3ccc(N4CCN(C)CC4)cc3)nc2n1-c1cccc(C(C)(C)O)n1`, for which the viability, T/C (compound 0.0316 µM) was 76.4% and 96.2% and 111%; the viability, T/C (compound 0.1 µM) was 59.4% and 51.4% and 83.7%; the viability, T/C (compound 0.316 µM) is 26.6% (2×) and 41.3%; the viability, T/C (compound 1 µM) was 17.6% and 13.5% and 23.8%; the viability, T/C (compound 3.16 µM) is 8.54% and 7.89% and 17.9%; the viability, T/C (compound 10 µM) was 9.53% and 9.94% and 16.1%. Also, the half-maximal inhibitory concentration (IC50) (curve of compound) is 138 nM and 108 nM and 253 nM.
For the molecule `COc1cccc2c1C(=O)c1c(O)c3c(c(O)c1C2=O)CC(O)(C(=O)CO)CC3OC1CC(N)C(O)C(C)O1` (stereo not given) + Cc1[nH]c2ccc(F)cc2c1-c1nc2c3cccnc3c3ncccc3c2[nH]1, the IC50 is, setting by setting: under setting [1], 81 nM; under setting [2], 72.1 nM; under setting [3], 77.4 nM; under setting [4], 135 nM; under setting [5], 65.5 nM; under setting [6], 65.2 nM. The viability, T/C under setting [7] is 112%; the viability, T/C (second compound 0.0316 µM, first compound 0.1 µM) is 31.8%; the viability, T/C under setting [8] is 21.9%; the viability, T/C (second compound 0.0316 µM, first compound 1 µM) is 9.79%; the viability, T/C (second compound 0.0316 µM, first compound 3.16 µM) is 0.88%; the viability, T/C (second compound 0.0316 µM, first compound 10 µM) was 4.17%. The viability, T/C reads like this: under setting [9], 80.3%; (second compound 0.1 µM, first compound 0.1 µM) 35.4%; under setting [10], 21.6%; (second compound 0.1 µM, first compound 1 µM) 8.91%; (second compound 0.1 µM, first compound 3.16 µM) 1.29%; (second compound 0.1 µM, first compound 10 µM) 2.78%. The viability, T/C is 88.3% under setting [11]; 36.5% (second compound 0.316 µM, first compound 0.1 µM); 19.7% under setting [12]; 13.5% (second compound 0.316 µM, first compound 1 µM); 1.55% (second compound 0.316 µM, first compound 3.16 µM); 3.24% (second compound 0.316 µM, first compound 10 µM). The viability, T/C runs as follows: under setting [13], 89.8%; (second compound 1 µM, first compound 0.1 µM) 60.3%; under setting [14], 21.3%; (second compound 1 µM, first compound 1 µM) 11.1%; (second compound 1 µM, first compound 3.16 µM) 1.17%; (second compound 1 µM, first compound 10 µM) 1.78%. The viability, T/C is, setting by setting: under setting [15], 77%; (second compound 3.16 µM, first compound 0.1 µM) 31.2%; under setting [16], 18%; (second compound 3.16 µM, first compound 1 µM) 16.5%; (second compound 3.16 µM, first compound 3.16 µM) 1.5%; (second compound 3.16 µM, first compound 10 µM) 1.98%. In addition, the viability, T/C is, setting by setting: under setting [17], 68.3%; (second compound 10 µM, first compound 0.1 µM) 39.3%; under setting [18], 16.9%; (second compound 10 µM, first compound 1 µM) 8.13%; (second compound 10 µM, first compound 3.16 µM) 1.49%; (second compound 10 µM, first compound 10 µM) 2.3%.
With `COc1cc(C2c3cc4c(cc3C(OC3OC5COC(C)OC5C(O)C3O)C3COC(=O)C23)OCO4)cc(OC)c1O` (stereo not given), the viability, T/C runs as follows: (compound 0.0316 µM) 94.7% and 99.8% (2×); (compound 0.1 µM) 96.7% and 94.9% and 84.3%; (compound 0.316 µM) 48.8% and 64% and 53.8%; (compound 1 µM) 22.1% and 20.2% and 30.3%; (compound 3.16 µM) 15.9% and 15.7% and 15.8%; (compound 10 µM) 12% and 11.2% and 17%. Besides, the half-maximal inhibitory concentration (IC50) (curve of compound) was 311 nM and 457 nM and 384 nM.
Take `Cc1[nH]c2ccccc2c1CCNCc1ccc(/C=C/C(=O)NO)cc1` + Cc1cnc(CNC(=O)c2c(=O)c3ccc(N4CCCN(C)CC4)nc3n3c2sc2ccccc23)cn1: the concentration for half-maximal inhibition (IC50) is, setting by setting: under setting [1], 54.2 nM; under setting [2], 20.1 nM; under setting [3], 1.57 nM; under setting [4], less than 0.999 nM; under setting [5], less than 0.999 nM; under setting [6], less than 0.999 nM. Also, the viability, T/C runs as follows: (second compound 0.0316 µM, first compound 0.000999 µM) 101%; (second compound 0.0316 µM, first compound 0.00316 µM) 80.9%; (second compound 0.0316 µM, first compound 0.00999 µM) 103%; under setting [7], 80%; (second compound 0.0316 µM, first compound 0.0999 µM) 15.5%; under setting [8], 0.98%. The viability, T/C (second compound 0.1 µM, first compound 0.000999 µM) was 67.3%; the viability, T/C (second compound 0.1 µM, first compound 0.00316 µM) was 54.2%; the viability, T/C (second compound 0.1 µM, first compound 0.00999 µM) is 55.2%; the viability, T/C under setting [9] is 46.1%; the viability, T/C (second compound 0.1 µM, first compound 0.0999 µM) is 12.2%; the viability, T/C under setting [10] was 0.49%. Besides, the viability, T/C (second compound 0.316 µM, first compound 0.000999 µM) is 59%; the viability, T/C (second compound 0.316 µM, first compound 0.00316 µM) is 35.4%; the viability, T/C (second compound 0.316 µM, first compound 0.00999 µM) was 31.4%; the viability, T/C under setting [11] was 25.5%; the viability, T/C (second compound 0.316 µM, first compound 0.0999 µM) was 14.5%; the viability, T/C under setting [12] was 0.46%. Besides, the viability, T/C was 34.4% (second compound 1 µM, first compound 0.000999 µM); 20.5% (second compound 1 µM, first compound 0.00316 µM); 34.5% (second compound 1 µM, first compound 0.00999 µM); 26% under setting [13]; 7.38% (second compound 1 µM, first compound 0.0999 µM); 0.1% under setting [14]. The viability, T/C was 27.3% (second compound 3.16 µM, first compound 0.000999 µM); 41.7% (second compound 3.16 µM, first compound 0.00316 µM); 50% (second compound 3.16 µM, first compound 0.00999 µM); 0.4% under setting [15]; 0.16% (second compound 3.16 µM, first compound 0.0999 µM); 0.22% under setting [16]. Also, the viability, T/C by setting is: (second compound 10 µM, first compound 0.000999 µM) 3.89%; (second compound 10 µM, first compound 0.00316 µM) 11.2%; (second compound 10 µM, first compound 0.00999 µM) 0.33%; under setting [17], 1.81%; (second compound 10 µM, first compound 0.0999 µM) 0.47%; under setting [18], 0.44%.
As for `Cc1[nH]c2ccccc2c1CCNCc1ccc(/C=C/C(=O)NO)cc1`, the viability, T/C is 108% and 109% and 114% (compound 0.000999 µM); 92% and 89.5% and 96.1% (compound 0.00316 µM); 106% and 110% and 105% (compound 0.00999 µM); 62.6% and 80.2% and 99% (compound 0.0316 µM); 8.77% and 22.1% and 21.3% (compound 0.0999 µM); 0.25% and 0.09% and 0.84% (compound 0.316 µM). Further, the IC50 (curve of compound) was 41.4 nM and 57.9 nM and 65.3 nM.
